Assay [1] addresses Vacuolar ATPase in human osteoclastoma (hOc) (Homo sapiens, UniProt P27449+Q13488). The experiment in a line: Vacuolar ATPase inhibition in human osteoclastoma (hOc) microsomal fraction. Format: biochemical. The following applies: 30 min, 37° C. As for the experimental part: 1.1 Determination of Vacuolar ATpase Inhibition in Human Osteoclastoma (hOc)
Osteoclast-like giant cells isolated from human osteoclastoma are homogenized using a glass-teflon homogeniser (1000 rpm) and the material is centrifuged for 20 minutes at 6000 g. The resultant pellet is resuspended and centrifuged at 100000 g for 60 minutes to sediment the microsomal fraction. The resultant pellet is resuspended in medium at pH 7.4 and stored under liquid nitrogen.
Inhibition of bafilomycin sensitive ATPase activity is assayed by measuring the release of inorganic phosphate during 30 minutes of incubation, at 37° C., of the human osteoclastoma microsomal fraction in 96-well plates. The reaction medium contains 1 mM ATP, 10 mM Hepes-Tris buffer pH 8, 50 mM KCl, 5 μM valinomycin, 5 μM nigericin, 1 mM CDTA-Tris, 100 μM ammonium molybdate, 0.2 M sucrose and the microsomal fraction (20 μg protein/ml). The reaction is initiated by adding MgSO4 and terminated, after 30 minutes, by adding 4 volumes of the reagent malachite green, prepared according to Chan K., Anal. Biochem. 157, 375-380, 1986.

Another assay concerns HT29/Mit cells. The experiment in a line: Antiproliferative activity, 72 h treatment, SRB assay, HT29/Mit resistant line. The assay is classed as cell-based, human. The following applies: HT-29/Mit resistant line, 72 h treatment; read-out: Antiproliferative activity (IC50 ± S.D.) HT-29/Mit. As to the method:
(§1) HT29 and HT29/Mit (line obtained by prolonged exposure to mitoxantrone, and characterised by overexpression of BCRP, which confers cross resistance to topotecan, irinotecan and to its metabolite SN38): maintained in McCoy 5A medium+10% FCS.
(§2) 2.2 Scheme of the Antiproliferative Activity Experiment (Treatment Time: 72 Hours)
(§3) The cells (HT29 and HT29/Mit: 40,000 cells/ml, LoVo, LoVo/Dx and HCT116: 50,000 cells/ml) are seeded in 100 μl of the respective culture media in 96-well plates. 24 hours after seeding, an aliquot (10 μl) of drug at the various concentrations is added. In the samples in which the effect of the combination of two compounds is to be tested the inhibitor is added immediately before the cytotoxic. For each dose or combination of doses/drugs the effect of the treatment is determined in 4-8 replicates.
(§4) After 72 hours of treatment the antiproliferative effect is evaluated using the sulforhodamine B (SRB) assay: the cells are fixed by adding 25 μl of 50% TCA to each well and left for 1 hour at 4° C. After washing them with water and allowing them to dry, 100 μl of 0.4% SRB in 1% acetic acid are added and left for 30 minutes at room temperature. After 4 washes in 1% acetic acid, they are left to dry then the dye fixed by the proteins is dissolved under basic conditions with 100 μl 10 mM cold Tris and the solution is read using a spectrophotometer at 550 nm.
(§5) Percentage cell growth is calculated as the optical density of treated samples compared to the optical density of controls (untreated cells).

For the next assay, the system named is HT29 cells. The experiment in a line: Antiproliferative activity, 72 h treatment, SRB assay, HT29. Particulars: HT-29, 72 h treatment; read-out: Antiproliferative activity (IC50 ± S.D.) HT-29 72 h treatment. Format: cell-based, human. As for the experimental part: as §1, §2, §3, §4, §5
For the next assay, the system named is HepG2 cells. The experiment in a line: Antiproliferative activity, 48 h treatment, ATPlite luminescence assay, HepG2. The assay is classed as cell-based, human. The following applies: HepG2, 48 h treatment; read-out: Antiproliferative activity (IC50 ± S.D.) HepG2 48 h treatment. As to the method:
HepG2: maintained in EMEM medium+10% FCS.
2.3 Scheme of the Antiproliferative Activity Experiment (Treatment Time: 48 Hours)
The cells (concentration: 30,000 cells/ml) are seeded in 90 μl of the respective culture media in 96-well plates. 24 hours after seeding, an aliquot (10 μl) of the drug at the various concentrations is added (for each concentration there are 3 replicates). After 48 hours of treatment the antiproliferative effect is evaluated with a luminescence assay (Perkin Elmer Life Sciences ATPlite):
50 μl of a lysis solution are added to each well followed by an equal volume of a solution containing luciferase and D-luciferin. The ATP present in all the metabolically active cells brings about the transformation reaction of D-luciferin, catalysed by luciferase, to produce a luminescent signal as described in the following scheme: ATP+D-luciferin+O2→Oxyluciferin+AMP+PP1+CO2+Light
The luminescence produced (expressed in counts per second, CPS) is measured by means of a microplate scintillation analyzer (Perkin Elmer Life Sciences Top Count).
Percentage inhibition of luminescence in the treated cells compared to the control is calculated; concentration-response curves are then analysed using Grafit v.5.0.

Each structure is given as a SMILES string. A value given as a limit tells only on which side of the number the result lay.

The source of these data is patent publication US20070248672A1, “Indole and Azaindole Derivatives with Antitumor Action” (priority 2004, published 2007).

Vacuolar ATPase in human osteoclastoma (hOc), sequence (P27449 whole entry, looked up): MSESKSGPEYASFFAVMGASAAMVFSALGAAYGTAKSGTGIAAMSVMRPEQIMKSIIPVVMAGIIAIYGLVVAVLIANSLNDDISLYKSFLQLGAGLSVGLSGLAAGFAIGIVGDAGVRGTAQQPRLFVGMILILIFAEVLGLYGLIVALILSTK
Vacuolar ATPase in human osteoclastoma (hOc), sequence (Q13488 whole entry, looked up): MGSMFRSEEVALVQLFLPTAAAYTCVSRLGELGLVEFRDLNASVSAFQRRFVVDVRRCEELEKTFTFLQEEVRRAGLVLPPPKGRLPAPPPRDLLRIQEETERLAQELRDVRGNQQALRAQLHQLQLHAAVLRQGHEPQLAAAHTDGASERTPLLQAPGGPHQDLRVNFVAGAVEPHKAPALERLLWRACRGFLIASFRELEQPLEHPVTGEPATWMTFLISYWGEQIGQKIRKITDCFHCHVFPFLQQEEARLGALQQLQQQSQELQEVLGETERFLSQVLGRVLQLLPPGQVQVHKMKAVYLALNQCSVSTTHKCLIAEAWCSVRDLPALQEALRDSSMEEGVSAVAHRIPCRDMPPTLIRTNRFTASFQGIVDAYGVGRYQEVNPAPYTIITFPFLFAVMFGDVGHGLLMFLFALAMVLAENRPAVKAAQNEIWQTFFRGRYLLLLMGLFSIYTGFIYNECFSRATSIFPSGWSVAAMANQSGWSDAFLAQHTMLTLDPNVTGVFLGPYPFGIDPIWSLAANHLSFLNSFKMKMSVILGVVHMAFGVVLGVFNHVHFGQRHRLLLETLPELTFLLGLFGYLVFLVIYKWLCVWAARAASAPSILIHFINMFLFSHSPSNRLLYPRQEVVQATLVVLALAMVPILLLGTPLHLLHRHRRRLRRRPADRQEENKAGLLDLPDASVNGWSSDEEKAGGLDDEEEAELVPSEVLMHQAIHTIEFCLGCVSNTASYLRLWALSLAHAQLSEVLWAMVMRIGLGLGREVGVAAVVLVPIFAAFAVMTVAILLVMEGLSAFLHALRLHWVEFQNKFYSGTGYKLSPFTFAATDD

`CO/C1=C\C(C)=C\[C@@H](C)[C@@H](O)[C@@H](C)C/C(C)=C/C=C/[C@H](OC)[C@@H]([C@@H](C)[C@@H](O)[C@H](C)[C@@]2(O)C[C@@H](O)[C@H](C)[C@@H](C(C)C)O2)OC1=O` [Bafilomycin A1, reference compound]: the IC50 is 0.1 nM in assay [1], 5 nM in the assay on HT29/Mit cells, 3 ± 2 nM in the assay with HT29 cells and below 6 nM in the assay on HepG2 cells.
